Values joined by “and” are separate entries in the source; they are usually repeats but may differ in a detail not shown here. Equal entries are not always repeated. Where two headings read alike, the source gives them in different places.
Key:
[1] = target: T1, GluN1/GluN2B-Q110G (UniProt P35439+Q01097, Q110G); assay: TEVC on Xenopus oocytes, EVT-101 site mutant; type: cell-based, rat GluN1, mouse GluN2B; conditions: 1 µM trans-OptoNAM-3 (dark)
T1 construct: expressed in transfected cells; host or cells: Xenopus laevis oocytes (nuclear cDNA injection)
T1 sequence (Q01097 27-1482 Q110G, other chains not shown): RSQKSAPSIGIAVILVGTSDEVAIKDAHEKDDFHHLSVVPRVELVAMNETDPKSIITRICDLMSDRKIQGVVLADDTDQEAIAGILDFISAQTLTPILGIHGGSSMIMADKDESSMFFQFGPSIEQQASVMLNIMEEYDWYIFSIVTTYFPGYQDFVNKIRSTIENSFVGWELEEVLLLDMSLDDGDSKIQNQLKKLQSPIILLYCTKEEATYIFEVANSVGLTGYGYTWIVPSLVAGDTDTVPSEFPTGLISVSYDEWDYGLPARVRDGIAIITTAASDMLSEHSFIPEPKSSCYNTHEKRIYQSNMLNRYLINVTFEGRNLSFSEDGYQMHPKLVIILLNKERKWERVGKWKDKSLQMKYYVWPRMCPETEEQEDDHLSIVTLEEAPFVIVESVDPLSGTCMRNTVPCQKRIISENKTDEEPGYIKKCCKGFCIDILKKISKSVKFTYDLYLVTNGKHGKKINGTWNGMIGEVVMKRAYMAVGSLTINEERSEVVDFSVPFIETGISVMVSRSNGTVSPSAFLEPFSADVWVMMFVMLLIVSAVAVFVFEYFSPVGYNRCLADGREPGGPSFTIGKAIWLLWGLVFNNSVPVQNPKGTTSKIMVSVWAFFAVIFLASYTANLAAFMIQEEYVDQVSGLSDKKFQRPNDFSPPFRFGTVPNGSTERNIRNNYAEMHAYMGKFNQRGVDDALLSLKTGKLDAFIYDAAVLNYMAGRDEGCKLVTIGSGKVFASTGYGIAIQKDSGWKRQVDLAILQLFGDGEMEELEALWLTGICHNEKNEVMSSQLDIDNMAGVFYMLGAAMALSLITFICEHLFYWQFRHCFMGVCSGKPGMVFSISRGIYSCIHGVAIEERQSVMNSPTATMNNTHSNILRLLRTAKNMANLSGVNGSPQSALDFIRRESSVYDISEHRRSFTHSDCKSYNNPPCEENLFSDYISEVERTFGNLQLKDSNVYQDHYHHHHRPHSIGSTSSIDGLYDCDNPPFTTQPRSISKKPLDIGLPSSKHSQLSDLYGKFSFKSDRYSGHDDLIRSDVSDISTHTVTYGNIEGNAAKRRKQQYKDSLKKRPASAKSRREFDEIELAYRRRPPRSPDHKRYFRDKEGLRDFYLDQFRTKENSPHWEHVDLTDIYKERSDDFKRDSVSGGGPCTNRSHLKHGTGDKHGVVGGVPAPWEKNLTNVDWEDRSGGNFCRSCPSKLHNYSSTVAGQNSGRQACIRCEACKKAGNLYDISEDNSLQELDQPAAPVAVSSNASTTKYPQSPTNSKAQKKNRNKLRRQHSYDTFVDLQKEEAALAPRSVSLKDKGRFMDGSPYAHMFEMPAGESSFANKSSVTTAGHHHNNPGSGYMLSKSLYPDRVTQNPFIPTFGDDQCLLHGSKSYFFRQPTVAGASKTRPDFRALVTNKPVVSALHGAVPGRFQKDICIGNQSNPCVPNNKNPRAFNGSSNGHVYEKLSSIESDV
Excerpt: We finally investigated the location of the OptoNAM-3 binding-site on the receptor. […] The binding site for GluN2B-selective antagonists at the GluN1/GluN2B NTD dimer interface contains two partially overlapping pockets that accommodate GluN2B-selective NAMs of distinct chemical scaffolds:[19] either scaffolds related to ifenprodil or scaffolds related to another GluN2B-selective NAM called EVT-101.[47]
We used cDNA coding for rat GluN1–1a (named GluN1 herein) (GenBank: U08261.1), rat GluN2A (GenBank: D13211.1), mouse GluN2B (GenBank: D10651.2), rat GluA1 flop (GenBank: M36418.2), and rat Myc-GluA2(Q)-flip (GenBank: AF164344.1) cloned into pcDNA3-based expression plasmids. GluK2 (GenBank: Z11548.1) corresponds to the fully RNA-edited version.[80] The GluN2B-ΔNTD construct is from ref[45] and GluN2B–N615K is from ref[81]. Single mutants GluN2B-Q110G and GluN1-L135H were from ref[19]. The GluA2 cDNA contains a Myc tag ([…]) fused between the signal peptide and the N-terminus sequences, and the GluA2 subunit is […] for its Q/R/N site (GluA2(Q)) to allow permeation of homomeric GluA2 receptors.[2] cDNAs coding for rat GluN2C (GenBank: M91563.1) and GluN2D subunits (GenBank: L31611.1) were in prK5 plasmids. […]

[2] = target: T2, GluK2 kainate receptors (Rattus norvegicus, UniProt P42260, I567V/Q621R/Y571C); assay: TEVC on Xenopus oocytes, GluK2 kainate receptors; type: cell-based; parameters: Inhibition, individual values: scale not given here; conditions: for Inhibition, individual values: GluK2, single cells
T2 construct: expressed in transfected cells; host or cells: Xenopus laevis oocytes (mRNA injection)
T2 sequence (P42260 32-908 I567V/Y571C/Q621R): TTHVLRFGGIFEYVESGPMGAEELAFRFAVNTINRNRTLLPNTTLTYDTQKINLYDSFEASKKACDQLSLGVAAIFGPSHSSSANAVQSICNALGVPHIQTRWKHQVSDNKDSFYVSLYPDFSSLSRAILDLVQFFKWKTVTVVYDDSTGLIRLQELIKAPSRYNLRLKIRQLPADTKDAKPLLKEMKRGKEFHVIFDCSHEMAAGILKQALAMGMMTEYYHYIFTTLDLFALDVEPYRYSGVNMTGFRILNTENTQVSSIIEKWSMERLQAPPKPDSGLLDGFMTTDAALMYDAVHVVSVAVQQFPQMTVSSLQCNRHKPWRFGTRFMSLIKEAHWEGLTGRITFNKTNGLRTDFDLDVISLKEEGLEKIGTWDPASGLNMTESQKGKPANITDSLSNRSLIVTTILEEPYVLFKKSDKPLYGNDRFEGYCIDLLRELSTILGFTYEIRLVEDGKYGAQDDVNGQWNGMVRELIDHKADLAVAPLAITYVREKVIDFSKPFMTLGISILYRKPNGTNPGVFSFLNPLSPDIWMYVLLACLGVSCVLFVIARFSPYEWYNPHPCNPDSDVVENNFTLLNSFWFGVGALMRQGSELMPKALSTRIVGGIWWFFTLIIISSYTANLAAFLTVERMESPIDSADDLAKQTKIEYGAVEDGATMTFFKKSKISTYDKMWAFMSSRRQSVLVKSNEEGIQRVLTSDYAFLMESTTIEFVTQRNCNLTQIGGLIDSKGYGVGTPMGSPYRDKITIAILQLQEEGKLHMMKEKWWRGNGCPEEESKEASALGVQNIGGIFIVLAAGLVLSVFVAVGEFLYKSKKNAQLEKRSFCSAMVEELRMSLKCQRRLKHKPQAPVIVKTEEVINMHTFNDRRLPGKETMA
Excerpt: We used cDNA coding for rat GluN1–1a (named GluN1 herein) (GenBank: U08261.1), rat GluN2A (GenBank: D13211.1), mouse GluN2B (GenBank: D10651.2), rat GluA1 flop (GenBank: M36418.2), and rat Myc-GluA2(Q)-flip (GenBank: AF164344.1) cloned into pcDNA3-based expression plasmids. GluK2 (GenBank: Z11548.1) corresponds to the fully RNA-edited version.[80] The GluN2B-ΔNTD construct is from ref[45] and GluN2B–N615K is from ref[81]. Single mutants GluN2B-Q110G and GluN1-L135H were from ref[19]. The GluA2 cDNA contains a Myc tag ([…]) fused between the signal peptide and the N-terminus sequences, and the GluA2 subunit is […] for its Q/R/N site (GluA2(Q)) to allow permeation of homomeric GluA2 receptors.[2] cDNAs coding for rat GluN2C (GenBank: M91563.1) and GluN2D subunits (GenBank: L31611.1) were in prK5 plasmids.
The expression of recombinant GluA1, GluA2(Q), and GluK2 receptors was obtained by oocyte injection of 50 nL of mRNAs (at 1 μg/μL). mRNAs were generated using the T7 (GluA1 and GluA2) and T3 (GluK2) mMessage mMachine transcription kits (Invitrogen) after cDNA linearization with the SacII restriction enzyme. The injected oocytes were stored in the same conditions as for NMDARs and used 72–96 h postinjection.
TEVC recordings were performed 1–3 days following injection. TEVC recordings were performed using an Oocyte Clamp amplifier OC-725 (Warner Instruments) and computer-controlled via a 1440A Digidata (Molecular Devices). Currents were sampled at 100 Hz and low-pass-filtered at 20 Hz using an 8-pole Bessel filter (900 Series, Frequency Devices Inc.). Data were collected with Clampfit 10.3. During the recording, the cells were continuously perfused with external recording Ringer solution at pH 7.3 (in mM: 100 NaCl, 0.3 BaCl2, 5 HEPES, and 2.5 KCl, pH adjustment to 7.3 by the addition of NaOH). The NMDA currents were induced by simultaneous application of L-glutamate and glycine (agonist solution) at saturating concentration (100 μM each), and DTPA (10 μM) to prevent receptor inhibition by ambient zinc (∼20 nM).[83] A control solution (100 μM glycine and 10 μM DTPA in Ringer pH 7.3) was used for washout of drug and test solutions. AMPA and kainate receptor currents were induced in the same conditions as NMDA currents (100 μM glutamate and glycine + 10 μM DTPA). Oocytes expressing GluK2 kainate receptors were treated with concanavalin A ([…], equivalent to 1.1 mg/mL) during 10 min before recording to decrease receptor desensitization. Unless notified, recordings were performed at a holding potential of −60 mV. All experiments were performed at room temperature.
Oocytes expressing GluK2 receptors were treated with concanavalin A ([…]) before recording to decrease
receptor desensitization.

- inhibition of GluN1/GluN2B-Q110G [1]: 65.503%
- inhibition at 10 µM ([2]; 10 µM OptoNAM-3 365 nm PSS, construct GluK2, read-out: Inhibition (%)): -1.6%
- inhibition at 10 µM ([2]; 10 µM OptoNAM-3 dark PSS (trans), construct GluK2, read-out: Inhibition (%)): 3.1%
- inhibition of GluK2 currents ([2]; 10 µM, dark PSS, concanavalin A treated): no effect
- inhibition at 10 µM ([2]; 10 µM, dark PSS, concanavalin A treated, read-out: inhibition of GluK2 currents): 3.1 ± 3.4%
SMILES: c1ccc(/N=N/c2ccc(CCNc3ccncc3)cc2)cc1 [OptoNAM-3, (E)-N-(4-(Phenyldiazenyl)phenethyl)pyridin-4-amine]
- Inhibition, individual values ([2]; 10 µM OptoNAM-3 dark PSS (trans) as headed, second block): -0.01064 and 0.02708 and -0.08821 and 0.02098 and -0.02821
- Inhibition, individual values ([2]; 10 µM OptoNAM-3 dark PSS (trans), first block): 0.1443 and -0.06723 and 0.004392 and 0.02857 and 0.0441

From publication PMC11413854, “Reversible Control of Native GluN2B-Containing NMDA Receptors with Visible Light” (ACS Chemical Neuroscience, 2024)
